# Measurements: patent US20240201204A1, “Biomarker and Druggable Target of Neurodegeneration” (University Hospitals Cleveland Medical Center, priority 2020, published 2024)
# Key:
# axon initial segment = assay: Axon initial segment (AIS) degradation after TBI (AnkG, βIV-spectrin staining); format: in vivo, mouse
# Experimental: (§1) Drug preparation and administration: CGP3466B (Sigma-Aldrich, SML1941) was dissolved in DMSO and then diluted in sterile saline. The final working stock was 0.0014 mg/ml for administering the 0.014 mg/kg dose. Intraperitoneal administration of CGP3466B was initiated 15 min or 24 h after injury, and tissues were harvested 6 h (for SNO-GAPDH, SNO-SIRT1 measurement) or 2 weeks (for ac-tau measurement) later, respectively. Salsalate (AdipoGen, AG-CR1-3574) was dissolved in DMSO and then diluted in sterile PBS. The final working stocks were as follows: 2.5 mg/ml (25 mg/kg dose), 1 mg/ml (10 mg/kg dose), 0.5 mg/ml (5 mg/kg dose). Daily intraperitoneal administration of salsalate was initiated 24 hr after injury and continued throughout behavioral testing. P7C3-A20 and FK866 (Sigma-Aldrich, F8557) were first dissolved in 1 vol of DMSO, followed by addition of 4 vol of Kolliphor and vigorously vortexing. The solution was then diluted with 30 vol of filtered 5% dextrose (pH 7.0). EX527 (Selleckchem, S1541) was dissolved in 1% DMSO+30% polyethylene glycol+1% Tween 80. Daily intraperitoneal administration of P7C3-A20 was initiated 24 hr after poly-traumatic brain injury. EX527 (10 mg/kg) was administer once a day and FK866 was treated twice per day, with the first injection given at the same time as P7C3-A20 (20 mg/kg) and the second injection given 6 h later (LoCoco et al., 2017 eLife). Diflunisal was first dissolved in 1 vol of DMSO, followed by addition of 2 vol of Kolliphor and vigorously vortexing. The solution was then diluted with 7 vol of saline to the appropriate concentration for administration at 25, 50, or 100 mg/kg.
# (§2) The pressure in the side not containing the mouse was increased to cause membrane rupture at 20 pounds per square inch (PSI), which generates an about 1-2 ms jet airflow of 137.9+/−13.79 kPa that passes through the animal's head. The head remains untethered in a padded holder, while the body is fully shielded by a metal tube. The jet of air produced upon membrane rupture provides a concussive injury, which is followed by acceleration/deceleration of the head and then exposure to the ensuing blast wave within an enclosed space.
# Immunohistochemistry: Mice were transcardially perfused with cold 1× phosphate-buffered saline (PBS) followed by 4% paraformaldehyde in PBS at pH 7.4 under anesthesia. Brains were carefully removed and post-fixed in 4% paraformaldehyde overnight at 4° C. Brains were immersed in 30% sucrose in PBS for 72 h at 4° C. and then rapidly frozen in 2-methylbutane pre-cooled to −20° C. with dry ice. Brains were cut coronally (40 μm) and sections were stored in cryoprotective solution (150 mM Ethylene glycol, 100 mM glycerol, 250 mM PBS) at −20° C. For tau and NeuN staining, sections were washed three times with PBS for 5 min and then treated with 0.2% Triton X-100 in PBS for 15 min. Sections were washed with PBS and then incubated with 100 mM glycine for 15 min. After blocking sections using blocking buffer (1% bovine serum albumin, 10% normal goat serum, 0.3 M glycine) for 30 min, primary antibodies (Tau, Invitrogen, #13-6400, 1:100, NeuN, EMD Millipore Cor., #MABN-140, 1:500) were incubated overnight at 4° C. Sections were washed three times with PBS (5 min each) and then incubated with Alexa Fluor 488 goat anti-mouse (Invitrogen, A11001, 1:200) or Alexa Fluor 568 goat anti-rabbit (Life technologies, A11011, 1:200) at room temperature for 2 h. […]
# tau = assay: Tau mislocalization after TBI (tau and NeuN immunohistochemistry); format: in vivo, mouse
# Experimental: as §1, §2
# Immunohistochemistry: Mice were transcardially perfused with cold 1× phosphate-buffered saline (PBS) followed by 4% paraformaldehyde in PBS at pH 7.4 under anesthesia. Brains were carefully removed and post-fixed in 4% paraformaldehyde overnight at 4° C. Brains were immersed in 30% sucrose in PBS for 72 h at 4° C. and then rapidly frozen in 2-methylbutane pre-cooled to −20° C. with dry ice. Brains were cut coronally (40 μm) and sections were stored in cryoprotective solution (150 mM Ethylene glycol, 100 mM glycerol, 250 mM PBS) at −20° C. […]
# NAD^+ = assay: Brain NAD+ measurement after TBI; format: in vivo, mouse
# Experimental: as §1, with “Diflunisal was first dissolved in 1 vol of DMSO, followed by addition of 2 vol of Kolliphor and vigorously vortexing. The solution was then diluted with 7 vol of saline to the appropriate concentration for administration at 25, 50, or 100 mg/kg.” left out
# GAPDH = target: T1, GAPDH (Mus musculus, UniProt P16858); assay: S-nitrosylation of GAPDH after TBI (SNO-resin assisted capture, western blot); format: in vivo; conditions: P7C3-A20 treatment after TBI
# T1 construct: from tissue; host or cells: cerebral cortex of C57BL/6J mice after TBI
# T1 sequence (P16858 whole entry): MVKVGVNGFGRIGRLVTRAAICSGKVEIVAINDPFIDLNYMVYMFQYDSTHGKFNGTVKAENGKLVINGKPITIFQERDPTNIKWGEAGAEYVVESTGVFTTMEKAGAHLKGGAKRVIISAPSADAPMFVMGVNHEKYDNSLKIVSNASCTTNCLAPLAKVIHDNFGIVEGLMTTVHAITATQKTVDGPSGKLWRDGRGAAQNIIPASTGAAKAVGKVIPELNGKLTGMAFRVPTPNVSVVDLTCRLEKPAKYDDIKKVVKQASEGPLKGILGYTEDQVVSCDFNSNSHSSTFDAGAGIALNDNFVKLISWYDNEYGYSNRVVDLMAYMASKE
# Experimental: as §1, with “The solution was then diluted with 7 vol of saline to the appropriate concentration for administration at 25, 50, or 100 mg/kg.” left out
# SNO-resin assisted capture (SNO-RAC): SNO-RAC was performed as described previously (Forrester, 2009). […] After two times centrifugation (20,000 g at 4° C. for 20 min), protein concentration of supernatants was determined using Coomassie protein assay (Thermo Scientific, #1856210). […] SNO-proteins were then eluted with 2× Laemmli Sample Buffer (Bio-Rad Laboratories, Inc., #1610737) with 10% beta-mercaptoethanol (Bio-Rad Laboratories, Inc., #1610710) and analyzed by SDS-PAGE and immunoblotting.
# [1] = test system: dementia, minor cognitive impairment, cognitive decline; conditions: about 19,000 subjects, placebo-controlled; cited from earlier work
# p300/CBP = conditions: literature (Shirakawa et al., 2016); cited from earlier work
# [2] = co-treatment with P7C3-A20, EX527 10 mg/kg once a day, FK866 twice per day
# [3] = P7C3-A20 daily IP from 24 h after TBI
smiles,measurement,setting,value
O=C(/C=C/c1cccnc1)NCCCCC1CCN(C(=O)c2ccccc2)CC1 [FK866],effect on P7C3-A20 protection from post-TBI AIS degradation,axon initial segment; [2],This protective effect is blocked
same,effect on P7C3-A20 protection from post-TBI tau mislocalization,tau; [2],This protective effect is blocked
same,effect on P7C3-A20 rescue of NAD^+ levels,"NAD^+; FK866 twice per day, co-administered with P7C3-A20 after TBI",blocked
"COc1cccc(NCC(F)Cn2c3ccc(Br)cc3c3cc(Br)ccc32)c1 (stereo not drawn) [P7C3-A20, 3,6-dibromo-β-fluoro-N-(3-methoxyphenyl)-9H-carbazole-9-propanamine]",post-TBI AIS degradation,axon initial segment; [3],protects mice from post-TBI AIS degradation
same,post-TBI tau mislocalization,tau; [3],protects mice from post-TBI tau mislocalization
same,SNO-GAPDH,GAPDH,SNO-GAPDH is not affected
same,brain NAD^+ levels,"NAD^+; P7C3-A20 daily IP from 24 h after TBI, cerebral cortex",rescued normal NAD^+ levels after TBI
CC(=O)Oc1ccccc1C(=O)O [aspirin],"incidence of dementia, minor cognitive impairment, or cognitive decline",[1],"does not significantly reduce the incidence of dementia, minor cognitive impairment, or cognitive decline"
same,inhibition of p300/CBP,p300/CBP,does not inhibit p300/CBP
